Reference: patent US4448970A, “Nargenicin derivatives” (The Upjohn Company, priority 1981, dated 1984)
Like-named read-outs stand apart in the source and are kept apart here.

Key:
Sarcina lutea = assay: Standard agar diffusion (12.5 cm disc) test, Sarcina lutea; type: cell-based; details: for zone of inhibition at 1000 µg/mL: Micrococcus luteus
Procedure: (§1) When tested on a standard agar diffusion (12.5 cm disc) test at a concentration of 1 mg/ml compound (45) gave the following zones of inhibition in mm:
(§2) The antibacterial activity of compounds (46), (47), (48), (49) and (50) on a standard agar diffusion (12.5 cm disc) test at a concentration of 1 mg/ml is shown in the following table: […]

Staphylococcus aureus = assay: Standard agar diffusion (12.5 cm disc) test, Staphylococcus aureus; type: cell-based; details: for zone of inhibition at 1000 µg/mL: Staphylococcus aureus
Procedure: as §1, §2

S. aureus [1] = assay: Standard dipped disc agar diffusion assay, S. aureus; type: cell-based; details: Staphylococcus aureus; 1 mg/ml, 0.5 in. disc
From the text: In vitro antibacterial testing data, as measured by standard dipped disc agar diffusion assays and Minimum Inhibitory Concentration (MIC) determinations are as follows: […]

S. lutea [2] = assay: Standard dipped disc agar diffusion assay, S. lutea; type: cell-based; details: Micrococcus luteus
Procedure: In vitro antibacterial testing data, as measured by standard dipped disc agar diffusion assays and Minimum Inhibitory Concentration (MIC) determinations are as follows:
A 0.5 inch disc dipped into a methanol solution of chloride (6b) at a concentration of 1 mg/ml gave a zone of inhibition of 30 mm when spotted on an agar tray seeded with S. lutea.

S. aureus [3] = assay: S. aureus SQ-Mouse CD50; type: in vivo; details: Staphylococcus aureus, sc
Mycobacterium avium = details: cited from earlier work
S. lutea [4] = details: cited from earlier work
B. fragilis = details: cited from earlier work
C. perfringens = details: cited from earlier work
K. pneumoniae = details: cited from earlier work
[5] = read-out: Agar Diffusion zone, S. lutea

COC1CC2C=CC3C4OC2(C(C)=CC(C)C(C(C)=NNC(N)=O)OC1=O)C3C(O)C(C)C4OC(=O)c1ccc[nH]1 (stereo not shown) [Compound 48, 18-Deoxy-18-semicarbazononargenicin A1]
zone of inhibition at 1000 µg/mL (Sarcina lutea; read-out: Zone size, S. lutea): 35 mm | zone of inhibition at 1000 µg/mL (Staphylococcus aureus; read-out: Zone size, S. aureus): 28 mm

COC1CC2C=CC3C4OC2(C(C)=CC(C)C(C(C)Cl)OC1=O)C3C(O)C(C)C4OC(=O)c1ccc[nH]1 (stereo not shown) [Compound 24, 18-Chloro-18-deoxynargenicin A1]
zone of inhibition at 1000 µg/mL (S. aureus [1]): 29 mm | zone of inhibition at 1000 µg/mL (S. lutea [2]; [5]): 31 mm | ED50 (S. aureus [3]): 107 mg/kg

COC1CC2C=CC3C4OC2(C(C)=CC(C)C(C(C)=NO)OC1=O)C3C(O)C(C)C4OC(=O)c1ccc[nH]1 (single isomer, unassigned; isomer a) [Compound 46, 18-Deoxy-18-oximinonargenicin A1, Isomer A]
zone of inhibition at 1000 µg/mL (Sarcina lutea; read-out: Zone size, S. lutea): 37 mm | zone of inhibition at 1000 µg/mL (Staphylococcus aureus; read-out: Zone size, S. aureus): 30 mm

COC1CC2C=CC3C4OC2(C(C)=CC(C)C(C(C)N=[N+]=[N-])OC1=O)C3C(O)C(C)C4OC(=O)c1ccc[nH]1 (stereo not shown) [Compound 29, 18-Azido-18-deoxynargenicin A1]
zone of inhibition at 1000 µg/mL (S. aureus [1]): 26 mm | zone of inhibition at 1000 µg/mL (S. lutea [2]; [5]): 33 mm

COC1CC2C=CC3C4OC2(C(C)=CC(C)C(C(C)=O)OC1=O)C3C(O)C(C)C4OC(=O)c1ccc[nH]1 (stereo not shown) [Compound 25, 18-Deoxy-18-oxonargenicin A1]
zone of inhibition at 1000 µg/mL (S. aureus [1]): 35 mm | zone of inhibition at 1000 µg/mL (S. lutea [2]; [5]): 41 mm | ED50 (S. aureus [3]): 152 mg/kg

COC1CC2C=CC3C4OC2(C(C)=CC(C)C(C(C)O)OC1=O)C3C(O)C(C)C4OC(=O)c1ccc[nH]1 (stereo not shown) [Nargenicin A1, nargenicin A1, reference compound]
ED50 (S. aureus [3]): 17 to 20 mg/kg

COC1CC2C=CC3C4OC2(C(C)=CC(C)C(C(C)Cl)OC1=O)C3C(O)C(C)C4O (stereo not shown) [Compound 35, 18-Chloro-18-deoxynodusmicin]
zone of inhibition at 1000 µg/mL (S. lutea [2]; 1 mg/ml, 0.5 in. disc, read-out: Agar Diffusion zone, S. lutea): 30 mm | zone of inhibition at 1000 µg/mL (S. lutea [2]; 0.5 inch disc dipped into methanol solution, 1 mg/ml, read-out: zone of inhibition, S. lutea): 30 mm

CON=C(C)C1OC(=O)C(OC)CC2C=CC3C4OC2(C(C)=CC1C)C3C(O)C(C)C4OC(=O)c1ccc[nH]1 (single isomer, unassigned; isomer b) [Compound 50, 18-Deoxy-18-methoximinonargenicin A1, Isomer B]
Zone size, S. lutea (Sarcina lutea; 1 mg/ml, 12.5 cm disc, table 6): 35 mm | Zone size, S. aureus (Staphylococcus aureus; 1 mg/ml, 12.5 cm disc, table 6): 30 mm

COC1CC2C=CC3C4OC2(C(C)=CC(C)C(C(C)O)OC1=O)C3C(O)C(C)C4O (single isomer, unassigned) [nodusmicin]
activity against Mycobacterium avium (Mycobacterium avium): active | activity against S. lutea (S. lutea [4]): active | activity against B. fragilis (B. fragilis): active | activity against C. perfringens (C. perfringens): active | activity against K. pneumoniae (K. pneumoniae): active

CON=C(C)C1OC(=O)C(OC)CC2C=CC3C4OC2(C(C)=CC1C)C3C(O)C(C)C4OC(=O)c1ccc[nH]1 (single isomer, unassigned; isomer a) [Compound 49, 18-Deoxy-18-methoximinonargenicin A1, Isomer A]
zone of inhibition at 1000 µg/mL (Sarcina lutea; 1 mg/ml, 12.5 cm disc, table 6, read-out: Zone size, S. lutea): 35 mm | zone of inhibition at 1000 µg/mL (Staphylococcus aureus; 1 mg/ml, 12.5 cm disc, table 6, read-out: Zone size, S. aureus): 30 mm

COC1CC2C=CC3C4OC2(C(C)=CC(C)C(C(C)=NO)OC1=O)C3C(O)C(C)C4OC(=O)c1ccc[nH]1 (single isomer, unassigned; isomer b) [Compound 47, 18-Deoxy-18-oximinonargenicin A1, Isomer B]
Zone size, S. lutea (Sarcina lutea; 1 mg/ml, 12.5 cm disc, table 6): 37 mm | Zone size, S. aureus (Staphylococcus aureus; 1 mg/ml, 12.5 cm disc, table 6): 30 mm

CCC1OC(=O)C(OC)CC2C=CC3C4OC2(C(C)=CC1C)C3C(O)C(C)C4OC(=O)c1ccc[nH]1 (stereo not shown) [Compound 32, 18-Deoxynargenicin A1]
zone of inhibition at 1000 µg/mL (S. aureus [1]): 29 mm | zone of inhibition at 1000 µg/mL (S. lutea [2]; [5]): 32 mm | ED50 (S. aureus [3]): > 100 mg/kg

COC1CC2C=CC3C4OC2(C(C)=CC(C)C(C(C)O)OC1=O)C3C(O)C(C)C4OC(=O)c1ccc[nH]1 (stereo not shown) [Compound 45, 18-Epinargenicin A1]
zone of inhibition at 1000 µg/mL (Sarcina lutea; read-out: zones of inhibition, Sarcina lutea): 35 mm | zone of inhibition at 1000 µg/mL (Staphylococcus aureus; read-out: zones of inhibition, Staphylococcus aureus): 26 mm
